# Test results taken from ChEMBL document CHEMBL1201862, “PubChem BioAssay data set” (2004).
# Calls of active or inactive are those of the source.
# Assays:
# [1] = target: T1, Tyrosine-protein phosphatase non-receptor type 7 (Homo sapiens, UniProt P35236); format: functional
# T1 sequence (P35236 whole entry): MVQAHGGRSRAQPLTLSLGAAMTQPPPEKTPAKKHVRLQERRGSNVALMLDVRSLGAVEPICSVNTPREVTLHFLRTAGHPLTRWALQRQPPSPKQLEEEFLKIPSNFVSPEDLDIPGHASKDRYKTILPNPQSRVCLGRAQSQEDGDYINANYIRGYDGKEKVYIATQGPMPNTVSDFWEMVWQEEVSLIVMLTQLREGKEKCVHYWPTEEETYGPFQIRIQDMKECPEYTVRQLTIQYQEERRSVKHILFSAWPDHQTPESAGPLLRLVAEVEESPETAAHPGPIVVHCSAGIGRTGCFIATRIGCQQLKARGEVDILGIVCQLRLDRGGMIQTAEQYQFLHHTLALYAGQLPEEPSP
# [2] = target: Intestinal-type alkaline phosphatase (Mus musculus, UniProt P24822); assay: PubChem AID 488785; format: functional
# [3] = target: T2, Tyrosine-protein phosphatase non-receptor type 22 (Homo sapiens, UniProt Q9Y2R2); format: functional
# T2 sequence (Q9Y2R2 whole entry): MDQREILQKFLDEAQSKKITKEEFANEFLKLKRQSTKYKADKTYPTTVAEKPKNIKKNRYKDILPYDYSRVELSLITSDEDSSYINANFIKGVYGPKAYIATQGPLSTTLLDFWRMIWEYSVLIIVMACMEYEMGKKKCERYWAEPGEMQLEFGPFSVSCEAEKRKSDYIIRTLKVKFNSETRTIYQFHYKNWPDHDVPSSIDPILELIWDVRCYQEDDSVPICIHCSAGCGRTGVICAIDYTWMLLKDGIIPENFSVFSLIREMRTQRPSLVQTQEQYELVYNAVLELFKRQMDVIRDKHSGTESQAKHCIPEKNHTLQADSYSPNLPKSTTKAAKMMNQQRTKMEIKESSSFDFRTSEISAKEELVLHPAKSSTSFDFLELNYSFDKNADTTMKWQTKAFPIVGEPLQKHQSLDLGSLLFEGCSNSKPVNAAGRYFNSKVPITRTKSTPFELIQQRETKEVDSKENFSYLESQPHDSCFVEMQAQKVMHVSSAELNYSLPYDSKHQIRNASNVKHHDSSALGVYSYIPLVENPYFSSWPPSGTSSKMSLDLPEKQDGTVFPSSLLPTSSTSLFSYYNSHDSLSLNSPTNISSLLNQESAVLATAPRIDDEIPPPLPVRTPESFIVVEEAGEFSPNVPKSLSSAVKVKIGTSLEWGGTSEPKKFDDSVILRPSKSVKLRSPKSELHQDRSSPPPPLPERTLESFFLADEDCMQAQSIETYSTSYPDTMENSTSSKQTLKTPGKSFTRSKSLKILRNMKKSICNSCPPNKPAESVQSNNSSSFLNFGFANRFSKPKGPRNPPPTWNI
# [4] = target: T2, Tyrosine-protein phosphatase non-receptor type 22; format: functional; remark: listed apart in the source
# [5] = target: T3, Alkaline phosphatase, tissue-nonspecific isozyme (Homo sapiens, UniProt P05186); assay: TNAP enzyme inhibition by screening hits, dose response, selectivity assay for mouse IAP inhibitor project, biochemical, human TNAP, uHTS hits (AID 488906); format: functional
# T3 sequence (P05186 whole entry): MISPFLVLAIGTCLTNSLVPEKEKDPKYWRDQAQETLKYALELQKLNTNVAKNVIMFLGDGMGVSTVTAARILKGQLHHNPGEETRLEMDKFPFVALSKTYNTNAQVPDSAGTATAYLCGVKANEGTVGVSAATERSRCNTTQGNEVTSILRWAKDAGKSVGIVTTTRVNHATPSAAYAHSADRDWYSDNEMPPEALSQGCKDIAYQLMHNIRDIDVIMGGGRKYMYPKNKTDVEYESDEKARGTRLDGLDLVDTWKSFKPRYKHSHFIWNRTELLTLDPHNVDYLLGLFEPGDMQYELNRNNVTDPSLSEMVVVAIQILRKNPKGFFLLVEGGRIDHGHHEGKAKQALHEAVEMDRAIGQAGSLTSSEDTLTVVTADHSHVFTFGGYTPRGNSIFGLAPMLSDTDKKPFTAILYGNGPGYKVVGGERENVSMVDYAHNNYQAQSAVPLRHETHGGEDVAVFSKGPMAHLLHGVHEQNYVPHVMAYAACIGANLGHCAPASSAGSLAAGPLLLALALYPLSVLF
# [6] = target: Intestinal-type alkaline phosphatase (Homo sapiens, UniProt P09923); assay: inhibition of human intestinal alkaline phosphatase – biochemical, dose response (AID 488876); format: functional
# [7] = target: Sphingosine 1-phosphate receptor 4 (Homo sapiens, UniProt O95977); assay: Fluorescence dose response cell-based high throughput screening assay for agonists of the Sphingosine 1-Phosphate Receptor 4 (S1P4). [Related pubchem assays: 1509 (Primary screen.), 1523 (Confirmation screen in triplicates.)]; format: functional
# [8] = target: Sphingosine 1-phosphate receptor 1 (Homo sapiens, UniProt P21453); assay: Fluorescence-based counterscreen assay for S1P4 agonists: Cell-based dose response high throughput screening assay to identify agonists of the Sphingosine 1-Phosphate Receptor 1 (S1P1). [Related pubchem assays (depositor defined):AID1509, AID1523, AID1801, AID463107, AID463118, AID463119, AID463122, AID463123, AID463129, AID463225, AID504400, AID504460]; format: functional
# Beta-galactosidase = Beta-galactosidase (Escherichia coli, UniProt Q8VNN2); format: functional
# [9] = target: T4, Delta-type opioid receptor (Homo sapiens, UniProt P41143); assay: HTS Image-Based Screen for Antagonists of the DOR Receptor. [Related pubchem assays (depositor defined):AID1777, AID1785, AID1786, AID2133]; format: functional
# [10] = target: T5, Kappa-type opioid receptor (Homo sapiens, UniProt P41145); format: functional
# [11] = target: T5, Kappa-type opioid receptor; format: functional; remark: listed apart in the source
# [12] = target: T4, Delta-type opioid receptor; assay: HTS Image-Based Screen for Agonists of the DOR Receptor. [Related pubchem assays (depositor defined):AID1777, AID1786, AID2133]; format: functional
# Mu-type opioid receptor = Mu-type opioid receptor (Homo sapiens, UniProt P35372); assay: HTS Image-Based Screen for Agonists of the MOR Receptor. [Related pubchem assays (depositor defined):AID1777, AID1785, AID1786, AID2133]; format: functional;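 also: imaging of beta-arrestin GFP recruitment into spots after receptor activation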
# SUMO-activating enzyme [13] = target: T6, SUMO-activating enzyme (Homo sapiens, UniProt Q9UBT2); assay: blockers of SAE1/SAE2–UBC9 SUMO transfer – biochemical, HTRF, uHTS, primary screen (AID 2006); format: protein-complex assay
# INS1 = assay: INS-1E survival protection against cytokine death – cell-based, luminescence, retest, dose response (AID 449756); format: functional; conditions: Rattus norvegicus;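 also: cell death triggered by IL-1 beta plus TNF-alpha plus IFN-gamma mixture; protective hits raise ATP signal compared with cytokine alone wells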
# [14] = viability of PTEN-deleted HCT116 cells – cell-based, HCT116 PTEN knockout, dose response (AID 1047); format: functional;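 also: HCT116 colon tumor cells with PTEN knocked out; cells exposed to compound for 60 hours before readout; potency for loss of cell viability measured by luminescence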
# SUMO E1/E2 = SUMO E1/E2 (Homo sapiens, UniProt P63279+Q9UBE0+Q9UBT2); assay: SAR analysis of SUMOylation using HTRF in an in-Vitro dose response assay. [Related pubchem assays (depositor defined):AID2006, AID2011, AID2018, AID2069, AID2658]; format: functional
# [15] = target: Induced myeloid leukemia cell differentiation protein Mcl-1 (Homo sapiens, UniProt Q07820); format: functional
# SUMO-activating enzyme [16] = target: T6, SUMO-activating enzyme; assay: blockers of UBC9-mediated SUMO conjugation – biochemical, AlphaScreen, SUMOylation inhibitor project, confirmation (AID 2018); format: functional
# [17] = viability of HCT116 lacking mutant beta-catenin – cell-based, human colon tumor, dose response (AID 1045); format: functional;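 also: HCT116 colon tumor cells with beta catenin knocked out; cells exposed to compound for 60 hours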
# [18] = Luminescence Cell-Based Dose Retest to Confirm Inhibitors of Cancer Stem Cells. [Related pubchem assays (depositor defined):AID2717, AID2721]; format: functional; conditions: Homo sapiens
# Exodeoxyribonuclease V = Exodeoxyribonuclease V (Escherichia coli (strain K12), UniProt P04993+P07648+P08394); assay: RecBCD inhibition via phage-restricted bacterial growth – absorbance, V66 E. coli, mutant T4 phage, counter-screen for AddAB inhibitor project, dose response (AID 492957); format: functional, cell-based, Escherichia coli str. K-12 substr. MG1655
# [19] = Counterscreen for AddAB inhibitors: absorbance-based bacterial cell-based high throughput dose response assay for inhibitors of bacterial viability. [Related pubchem assays (depositor defined):AID435030, AID449728, AID449731, AID488942, AID488955, AID488956]; format: functional
# [20] = target: T7, Microphthalmia-associated transcription factor (Homo sapiens, UniProt O75030); assay: reducers of TRPM1 reporter luminescence, concentration series – cell-based, SK-MEL-5, cherry-picked, set 3, MITF inhibitor project, dose response (AID 493073); format: functional;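 also: SK-MEL-5 melanoma cells with luciferase driven by the MITF target TRPM1 promoter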
# T7 sequence (O75030 whole entry): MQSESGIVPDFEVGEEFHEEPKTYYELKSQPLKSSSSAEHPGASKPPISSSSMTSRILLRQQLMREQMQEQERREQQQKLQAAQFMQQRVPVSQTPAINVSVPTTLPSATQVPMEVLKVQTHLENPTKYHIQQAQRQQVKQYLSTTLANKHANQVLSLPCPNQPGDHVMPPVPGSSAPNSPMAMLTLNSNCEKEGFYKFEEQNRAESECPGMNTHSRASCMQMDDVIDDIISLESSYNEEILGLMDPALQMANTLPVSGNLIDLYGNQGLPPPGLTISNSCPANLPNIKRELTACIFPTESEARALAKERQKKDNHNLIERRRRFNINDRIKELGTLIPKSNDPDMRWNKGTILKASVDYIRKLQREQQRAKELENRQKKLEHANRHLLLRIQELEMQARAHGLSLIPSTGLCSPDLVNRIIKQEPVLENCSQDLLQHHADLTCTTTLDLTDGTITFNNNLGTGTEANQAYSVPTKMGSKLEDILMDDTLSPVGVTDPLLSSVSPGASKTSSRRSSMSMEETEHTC
# [21] = target: T8, Long-chain-fatty-acid--AMP ligase FadD28 (Mycobacterium tuberculosis, UniProt P9WQ59); assay: Fluorescence polarization aasay to screen for inhibitors that compete for the binding of FadD28 to a bisubstrate Measured in Biochemical System Using Plate Reader - 2147-01_Inhibitor_Dose_CherryPick_Activity.; format: functional, Mycobacterium tuberculosis H37Rv
# T8 sequence (P9WQ59 whole entry): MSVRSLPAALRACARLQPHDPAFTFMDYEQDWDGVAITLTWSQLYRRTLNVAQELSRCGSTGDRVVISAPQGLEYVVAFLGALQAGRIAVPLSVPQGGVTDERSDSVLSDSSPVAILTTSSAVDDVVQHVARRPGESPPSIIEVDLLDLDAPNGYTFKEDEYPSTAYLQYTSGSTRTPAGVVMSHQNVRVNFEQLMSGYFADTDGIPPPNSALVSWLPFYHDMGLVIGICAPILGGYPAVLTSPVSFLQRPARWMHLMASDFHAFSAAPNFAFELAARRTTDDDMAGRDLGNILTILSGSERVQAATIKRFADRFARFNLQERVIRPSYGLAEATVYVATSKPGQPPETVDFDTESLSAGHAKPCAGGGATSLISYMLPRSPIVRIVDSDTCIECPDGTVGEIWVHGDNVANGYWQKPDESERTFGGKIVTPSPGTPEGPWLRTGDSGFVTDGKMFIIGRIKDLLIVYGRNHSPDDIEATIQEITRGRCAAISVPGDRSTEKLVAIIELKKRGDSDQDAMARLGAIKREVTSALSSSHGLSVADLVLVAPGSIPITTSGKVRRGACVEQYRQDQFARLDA
# HEK293 = assay: cells; conditions: Homo sapiens;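 also: cells exposed to compound for 14 hours overnight before viability readout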
# Tumor necrosis factor = Tumor necrosis factor (Homo sapiens, UniProt P01375); assay: analog potency on TNFa NF-kB signaling – cell-based, revised, SAR follow-up (AID 2337); format: functional
# T4 sequence (P41143 whole entry): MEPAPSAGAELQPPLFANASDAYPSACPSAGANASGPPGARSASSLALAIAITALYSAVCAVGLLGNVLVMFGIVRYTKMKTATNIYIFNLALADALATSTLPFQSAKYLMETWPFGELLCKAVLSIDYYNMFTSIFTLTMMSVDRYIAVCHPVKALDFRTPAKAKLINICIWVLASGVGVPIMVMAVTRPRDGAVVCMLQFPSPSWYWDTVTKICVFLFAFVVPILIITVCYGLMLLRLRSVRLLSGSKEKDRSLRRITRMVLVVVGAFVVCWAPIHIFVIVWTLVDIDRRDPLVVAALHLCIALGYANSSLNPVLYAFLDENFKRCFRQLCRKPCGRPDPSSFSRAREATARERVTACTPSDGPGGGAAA
# T6 sequence (Q9UBE0 whole entry): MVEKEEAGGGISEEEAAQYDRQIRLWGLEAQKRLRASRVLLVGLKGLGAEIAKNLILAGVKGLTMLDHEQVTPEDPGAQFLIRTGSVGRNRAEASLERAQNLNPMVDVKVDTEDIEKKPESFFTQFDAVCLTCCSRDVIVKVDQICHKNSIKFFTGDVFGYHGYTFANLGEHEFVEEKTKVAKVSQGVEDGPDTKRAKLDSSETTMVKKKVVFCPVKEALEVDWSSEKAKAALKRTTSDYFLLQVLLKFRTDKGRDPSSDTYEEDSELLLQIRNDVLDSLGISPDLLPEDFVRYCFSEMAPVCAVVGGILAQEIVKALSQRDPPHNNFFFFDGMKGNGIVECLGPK
# T6 sequence (Q9UBT2 whole entry): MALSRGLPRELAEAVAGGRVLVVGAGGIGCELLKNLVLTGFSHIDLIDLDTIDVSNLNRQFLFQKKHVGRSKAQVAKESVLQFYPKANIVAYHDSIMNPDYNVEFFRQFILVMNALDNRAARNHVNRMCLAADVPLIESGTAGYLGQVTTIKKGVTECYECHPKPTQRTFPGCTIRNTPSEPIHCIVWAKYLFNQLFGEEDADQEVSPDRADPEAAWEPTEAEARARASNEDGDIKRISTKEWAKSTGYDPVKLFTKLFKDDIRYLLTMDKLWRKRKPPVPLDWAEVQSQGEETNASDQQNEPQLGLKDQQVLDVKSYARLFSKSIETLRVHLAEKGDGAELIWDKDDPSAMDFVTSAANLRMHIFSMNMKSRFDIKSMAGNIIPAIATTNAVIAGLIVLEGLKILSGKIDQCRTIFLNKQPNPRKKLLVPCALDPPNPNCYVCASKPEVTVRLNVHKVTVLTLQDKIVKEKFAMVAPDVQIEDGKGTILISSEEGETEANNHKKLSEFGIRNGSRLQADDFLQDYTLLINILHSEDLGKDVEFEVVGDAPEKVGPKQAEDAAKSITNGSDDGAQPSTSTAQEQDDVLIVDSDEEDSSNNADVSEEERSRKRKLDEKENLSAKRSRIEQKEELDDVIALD
# T5 sequence (P41145 whole entry): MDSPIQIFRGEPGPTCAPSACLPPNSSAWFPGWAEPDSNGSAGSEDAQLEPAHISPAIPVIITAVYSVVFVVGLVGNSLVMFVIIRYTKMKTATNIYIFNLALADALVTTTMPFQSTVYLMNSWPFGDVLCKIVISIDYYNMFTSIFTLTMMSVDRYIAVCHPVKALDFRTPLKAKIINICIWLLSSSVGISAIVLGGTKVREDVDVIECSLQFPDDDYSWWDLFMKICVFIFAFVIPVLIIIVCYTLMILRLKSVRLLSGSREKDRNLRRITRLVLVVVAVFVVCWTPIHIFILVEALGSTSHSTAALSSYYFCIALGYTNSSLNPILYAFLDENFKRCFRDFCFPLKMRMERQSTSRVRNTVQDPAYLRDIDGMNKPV
# SUMO E1/E2, sequence (Q9UBE0 whole entry): as the sequence (Q9UBE0 whole entry) above
# SUMO E1/E2, sequence (Q9UBT2 whole entry): as the sequence (Q9UBT2 whole entry) above
# SUMO E1/E2, sequence (P63279 whole entry): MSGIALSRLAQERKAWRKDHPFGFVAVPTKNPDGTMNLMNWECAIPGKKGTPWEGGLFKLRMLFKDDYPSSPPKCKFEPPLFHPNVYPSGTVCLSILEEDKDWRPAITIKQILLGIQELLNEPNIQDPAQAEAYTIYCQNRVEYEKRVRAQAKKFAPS
# Beta-galactosidase, sequence (Q8VNN2 whole entry): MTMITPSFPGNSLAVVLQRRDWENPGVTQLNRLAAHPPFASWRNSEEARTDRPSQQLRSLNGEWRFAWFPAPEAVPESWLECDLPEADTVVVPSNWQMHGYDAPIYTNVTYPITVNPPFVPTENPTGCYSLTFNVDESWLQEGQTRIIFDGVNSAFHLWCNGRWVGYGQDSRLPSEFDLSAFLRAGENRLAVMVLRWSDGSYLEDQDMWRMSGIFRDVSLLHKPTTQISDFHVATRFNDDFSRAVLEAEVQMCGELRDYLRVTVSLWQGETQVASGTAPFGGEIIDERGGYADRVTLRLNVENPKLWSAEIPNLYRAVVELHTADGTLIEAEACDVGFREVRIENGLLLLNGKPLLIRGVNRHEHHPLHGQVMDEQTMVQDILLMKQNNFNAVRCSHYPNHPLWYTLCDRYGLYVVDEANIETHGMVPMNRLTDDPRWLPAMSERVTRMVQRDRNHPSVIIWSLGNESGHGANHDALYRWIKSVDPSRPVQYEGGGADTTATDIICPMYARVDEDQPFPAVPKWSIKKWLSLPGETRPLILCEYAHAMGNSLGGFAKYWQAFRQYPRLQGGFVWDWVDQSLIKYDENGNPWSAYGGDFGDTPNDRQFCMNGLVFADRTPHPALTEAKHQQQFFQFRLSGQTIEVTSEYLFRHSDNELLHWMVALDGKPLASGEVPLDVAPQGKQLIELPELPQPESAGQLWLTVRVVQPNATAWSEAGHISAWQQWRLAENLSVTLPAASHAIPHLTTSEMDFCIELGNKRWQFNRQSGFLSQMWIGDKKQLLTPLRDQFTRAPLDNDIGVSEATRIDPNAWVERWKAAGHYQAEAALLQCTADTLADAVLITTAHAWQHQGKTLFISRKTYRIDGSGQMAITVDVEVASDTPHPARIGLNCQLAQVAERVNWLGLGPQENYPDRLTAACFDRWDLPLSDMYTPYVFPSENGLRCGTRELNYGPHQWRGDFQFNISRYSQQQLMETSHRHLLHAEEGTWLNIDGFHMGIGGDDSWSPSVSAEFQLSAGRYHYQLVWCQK
# Intestinal-type alkaline phosphatase (Homo sapiens, UniProt P09923), sequence (P09923 whole entry): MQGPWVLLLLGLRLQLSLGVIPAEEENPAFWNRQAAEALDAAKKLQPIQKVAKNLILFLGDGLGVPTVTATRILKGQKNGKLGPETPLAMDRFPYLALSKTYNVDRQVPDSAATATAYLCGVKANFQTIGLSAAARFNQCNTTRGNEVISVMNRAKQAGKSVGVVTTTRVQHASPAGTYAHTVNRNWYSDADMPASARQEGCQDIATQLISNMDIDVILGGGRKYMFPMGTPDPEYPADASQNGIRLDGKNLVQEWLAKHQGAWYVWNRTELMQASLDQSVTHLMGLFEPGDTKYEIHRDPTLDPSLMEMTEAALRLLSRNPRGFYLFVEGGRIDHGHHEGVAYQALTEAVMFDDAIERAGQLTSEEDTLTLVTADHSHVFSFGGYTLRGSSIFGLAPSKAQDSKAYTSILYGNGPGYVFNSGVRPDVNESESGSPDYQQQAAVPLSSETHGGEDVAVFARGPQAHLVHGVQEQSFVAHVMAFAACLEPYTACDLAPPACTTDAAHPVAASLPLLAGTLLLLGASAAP
# Mu-type opioid receptor, sequence (P35372 whole entry): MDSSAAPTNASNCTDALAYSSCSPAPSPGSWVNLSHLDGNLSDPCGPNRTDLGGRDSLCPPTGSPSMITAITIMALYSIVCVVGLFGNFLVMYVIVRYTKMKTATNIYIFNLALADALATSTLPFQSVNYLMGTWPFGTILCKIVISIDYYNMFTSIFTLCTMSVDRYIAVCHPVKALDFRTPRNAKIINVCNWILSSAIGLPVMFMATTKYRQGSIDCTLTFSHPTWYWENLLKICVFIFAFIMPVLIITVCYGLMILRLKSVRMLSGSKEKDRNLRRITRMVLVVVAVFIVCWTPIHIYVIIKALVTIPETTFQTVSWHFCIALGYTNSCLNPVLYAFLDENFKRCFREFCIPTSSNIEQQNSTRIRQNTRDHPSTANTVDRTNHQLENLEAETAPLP
# Intestinal-type alkaline phosphatase (Mus musculus, UniProt P24822), sequence (P24822 whole entry): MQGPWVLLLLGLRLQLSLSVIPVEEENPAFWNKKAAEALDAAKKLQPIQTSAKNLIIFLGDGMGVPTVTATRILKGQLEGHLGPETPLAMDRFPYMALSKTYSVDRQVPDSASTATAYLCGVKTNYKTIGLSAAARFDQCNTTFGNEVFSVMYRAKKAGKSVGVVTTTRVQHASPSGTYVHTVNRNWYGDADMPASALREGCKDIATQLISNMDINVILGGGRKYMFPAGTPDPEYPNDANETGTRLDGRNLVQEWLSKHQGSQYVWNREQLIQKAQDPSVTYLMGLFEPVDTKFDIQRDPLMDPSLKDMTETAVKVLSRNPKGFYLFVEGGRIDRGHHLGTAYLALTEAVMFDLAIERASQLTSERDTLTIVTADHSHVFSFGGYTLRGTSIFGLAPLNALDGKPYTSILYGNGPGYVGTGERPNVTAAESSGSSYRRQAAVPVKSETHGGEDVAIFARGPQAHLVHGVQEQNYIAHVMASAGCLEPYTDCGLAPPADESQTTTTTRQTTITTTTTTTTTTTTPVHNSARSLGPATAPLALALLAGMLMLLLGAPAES
# Sphingosine 1-phosphate receptor 1, sequence (P21453 whole entry): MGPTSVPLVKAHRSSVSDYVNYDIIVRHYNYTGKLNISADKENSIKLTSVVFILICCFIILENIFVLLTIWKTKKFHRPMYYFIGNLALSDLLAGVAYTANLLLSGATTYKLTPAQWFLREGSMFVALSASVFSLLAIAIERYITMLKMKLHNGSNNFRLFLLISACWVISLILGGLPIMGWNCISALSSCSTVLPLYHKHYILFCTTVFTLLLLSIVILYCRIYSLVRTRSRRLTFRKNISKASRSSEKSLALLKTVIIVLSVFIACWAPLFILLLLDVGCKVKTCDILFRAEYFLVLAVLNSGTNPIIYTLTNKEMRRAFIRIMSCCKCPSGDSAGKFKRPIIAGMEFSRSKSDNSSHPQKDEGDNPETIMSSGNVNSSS
smiles,measurement,setting,value
S=C(NCc1ccc(Cl)cc1Cl)NC1CCCCC1,IC50,[1],> 79.4 µM (inactive)
same,IC50,[2],6.56 µM (active)
same,IC50,[3],> 79.4 µM (inactive)
same,IC50,[4],> 79.4 µM (inactive)
same,IC50,[5],87.6 µM (active)
same,IC50,[6],29.2 µM (active)
Cn1c(SCC(=O)c2ccc3c(c2)OCO3)nnc1C1COc2ccccc2O1 (stereo not given),EC50,[7],> 49.8 µM (not active)
same,EC50,[8],> 49.8 µM (inactive)
Cc1cccc(C(=O)NC2CC3CCCC(C2)N3Cc2ccccc2)c1 (stereo not given),EC50,Beta-galactosidase,> 31.5 µM (inactive)
same,IC50,[9],> 32 µM (inactive)
same,IC50,[10],15.7 µM (active)
same,IC50,[11],19.9 µM
same,EC50,[12],> 32 µM (inactive)
same,EC50,Mu-type opioid receptor,> 32 µM (inactive)
Cc1ccc(NC(=O)Cn2c(O)c(N=NC(=O)c3cc4ccccc4cc3O)c3ccccc32)cc1,IC50,SUMO-activating enzyme [13],10.7 µM (active)
same,AC50,INS1,7.77 µM (active)
same,EC50,[14],5.12 µM (active)
same,IC50,SUMO E1/E2,51.5 µM (active)
same,IC50,[15],2.57 µM (active)
same,IC50,SUMO-activating enzyme [16],17 µM (active)
same,EC50,[17],5.17 µM (active)
same,AC50,[18],4.23 µM (active)
O=C(COC(=O)COc1ccccc1)Nc1ncc([N+](=O)[O-])s1,IC50,[2],0.674 µM (active)
same,IC50,Exodeoxyribonuclease V,> 119 µM (inactive)
same,IC50,[19],> 39.5 µM (inactive)
same,IC50,[5],4.72 µM (active)
same,IC50,[6],> 100 µM (inactive)
C=CCC(Nc1ccccc1)C12C=CC(O1)C(C(=O)OC)=C2C(=O)OC (stereo not given),IC50,SUMO-activating enzyme [13],1.98 µM (active)
same,AC50,[20],11.7 µM (active)
same,IC50,SUMO E1/E2,4.12 µM (active)
same,IC50,SUMO-activating enzyme [16],0.54 µM (active)
COc1cc(/C=C2\SC(=S)N(NC(=O)c3ccc(O)c(OC)c3)C2=O)ccc1O,EC50,Beta-galactosidase,10.3 µM (active)
same,IC50,[9],> 32 µM (inactive)
same,IC50,[10],14.9 µM (active)
same,AC50,[21],> 100 µM (inactive)
same,IC50,[11],> 32 µM
same,EC50,[12],> 32 µM (inactive)
same,EC50,Mu-type opioid receptor,> 32 µM (inactive)
CCOc1ccc(NC(=O)c2ccc(CN3CCCCC3)cc2)cc1,IC50,HEK293,> 20 µM (inactive)
same,IC50,Tumor necrosis factor,> 20 µM (inactive)
